Data set [1] has as its system BV-2. Kind of data set: Anti-neuroinflammatory activity in mouse BV-2 cells assessed as inhibition of LPS-induced NO production. Type of data set: functional, cell-based.
The nature of data set [2]: Cytotoxicity against mouse BV-2 cells assessed as cell viability at 25 uM by MTT assay. To be noted: read-out: Activity. Type of data set: toxicity, cell-based.
Data set [3] concerns C6. Kind of data set: Neuroprotective activity in rat C6 cells assessed as NGF secretion level at 25 uM measured after 24 hrs by ELISA. The format is functional. In general terms: ELISA stands for enzyme-linked immunosorbent assay.
Data set [4] in a line: Cytotoxicity against rat C6 cells assessed as cell viability at 25 uM by MTT assay. Type of data set: toxicity, cell-based. The following applies: read-out: Activity. (Formazan colour is commonly taken as a measure of viable cells.)

By IC50 is commonly meant the concentration that inhibits the measured activity by half. Turning to `COc1cc([C@@H]2Oc3cc(CCCO)cc(O)c3O[C@H]2CO)ccc1O`, the IC50 in data set [1] came to 36.9 µM. Besides, the viability at 25 µM in data set [2] stood at 92.4%.

On to `OC[C@H]1O[C@@H](O[C@H]2c3ccc(O)cc3O[C@@H](c3ccc(O)cc3)[C@@H]2O)[C@H](O)[C@@H](O)[C@@H]1O`, for which the IC50 in data set [1] was 51.5 µM. For the same compound, the viability at 25 µM in data set [2] was found to be 98.9%; in data set [4], 102%. Further, in data set [3], the Activity is listed as 103.8%.

In the case of `COc1cc([C@@H]2Oc3cc(CCCO)cc(O)c3O[C@H]2CO)ccc1O[C@@H]1O[C@H](CO)[C@@H](O)[C@H](O)[C@H]1O`, the IC50 in data set [1] was determined as 50.6 µM. The viability at 25 µM in data set [2] was found to be 95.9%; in data set [4], 99.2%. Also, the Activity in data set [3] is 107.6%.

With `CCCCC/C=C/C(=O)CCc1ccc(O)c(OC)c1` [SHOGAOL], in data set [3], the Activity was found to be 118.5%. In data set [4], the viability at 25 µM was 116%.

Regarding `CNC(=N)NCCC[C@H](N)C(=O)O` [TILARGININE], the 50% inhibitory concentration (IC50) in data set [1] is 27.2 µM. In data set [2], the viability at 25 µM worked out at 104%.

For the origin of these results see ChEMBL document CHEMBL5120783, “Procyanidins and Phlobatannins from the Twigs of Rosa multiflora and Their Neuroprotective Activity” (J Nat Prod, 2022).
